This note sets out measurements from publication PMC10615177 (ACS infectious diseases, 2023).

≈ marks a conversion by molar mass, not a printed value. Where two headings read alike, the source gives them in different places.

For one data set, the system named is M. smegmatis. As to the kind of experiment: M. smegmatis cell growth inhibition. Format: cell-based, Mycobacterium smegmatis.
Another data set has as its system M. tuberculosis HN878. As to the kind of experiment: M. tuberculosis HN878 growth inhibition. Type of data set: cell-based, Mycobacterium tuberculosis. The following applies: Mycobacterium tuberculosis; for IC50: HN878, read-out: Mtb HN878 IC50, dose-response curves; for MIC: HN878, read-out: Mtb HN878 MIC.
Another data set deals with M. tuberculosis Erdman. As to the kind of experiment: M. tuberculosis Erdman growth inhibition. Format: cell-based, Mycobacterium tuberculosis. The following applies: Mycobacterium tuberculosis, ERDMAN, read-out: Mtb Erdman MIC.
A further data set concerns M. tuberculosis H37Rv. The data set is described as follows: M. tuberculosis H37Rv growth inhibition. Type of data set: cell-based, Mycobacterium tuberculosis. Particulars: Mycobacterium tuberculosis, H37RV, read-out: Mtb H37Rv MIC.
The subject of the next data set is Bacillus subtilis. As to the kind of experiment: B. subtilis growth inhibition. The following applies: Bacillus subtilis, read-out: Bs IC50. Type of data set: cell-based.
For another data set, the system named is E. coli. The data set is described as follows: E. coli growth inhibition. Format: cell-based, Escherichia coli.
Data set [1] deals with T. brucei bloodstream forms. As to the kind of experiment: T. brucei bloodstream form growth inhibition. The following applies: Trypanosoma brucei, read-out: T. brucei IC50. Type of data set: cell-based, Trypanosoma brucei.
Data set [2] has as its system T. cruzi Dm28c epimastigotes. The data set is described as follows: T. cruzi epimastigote growth inhibition. Format: cell-based, Trypanosoma cruzi. The following applies: Trypanosoma cruzi, read-out: T. cruzi IC50 (EPI).
For data set [3], the system named is T. cruzi Dm28c intracellular amastigotes. The data set is described as follows: T. cruzi intracellular amastigote inhibition. Format: cell-based, Trypanosoma cruzi. The following applies: Trypanosoma cruzi, U2OS, read-out: T. cruzi IC50 (PAR).
The subject of data set [4] is L. donovani promastigotes. The data set is described as follows: L. donovani promastigote growth inhibition. Type of data set: cell-based, Leishmania donovani. Particulars: Leishmania donovani, read-out: L. donovani IC50.
Another data set is described as follows: in vitro. The following applies: human.
Data set [5] has as its system M. abscessus smooth variant. The data set is described as follows: microbe, parasite or virus in culture. Format: cell-based.
The subject of data set [6] is M. abscessus rough variant. As to the kind of experiment: microbe, parasite or virus in culture. Type of data set: cell-based.
Data set [7] addresses M. tuberculosis MmpL3 (MtMmpL3) (Mycobacterium tuberculosis, UniProt P9WJV5). As to the kind of experiment: Surface plasmon resonance binding to MmpL3. In general terms: Surface plasmon resonance follows binding to a sensor surface in real time, without labels.
The mark [8] stands for this setting: Mycolicibacterium smegmatis, read-out: Ms IC50, M. smegmatis.

Chain of M. tuberculosis MmpL3 (MtMmpL3) (P9WJV5 whole entry): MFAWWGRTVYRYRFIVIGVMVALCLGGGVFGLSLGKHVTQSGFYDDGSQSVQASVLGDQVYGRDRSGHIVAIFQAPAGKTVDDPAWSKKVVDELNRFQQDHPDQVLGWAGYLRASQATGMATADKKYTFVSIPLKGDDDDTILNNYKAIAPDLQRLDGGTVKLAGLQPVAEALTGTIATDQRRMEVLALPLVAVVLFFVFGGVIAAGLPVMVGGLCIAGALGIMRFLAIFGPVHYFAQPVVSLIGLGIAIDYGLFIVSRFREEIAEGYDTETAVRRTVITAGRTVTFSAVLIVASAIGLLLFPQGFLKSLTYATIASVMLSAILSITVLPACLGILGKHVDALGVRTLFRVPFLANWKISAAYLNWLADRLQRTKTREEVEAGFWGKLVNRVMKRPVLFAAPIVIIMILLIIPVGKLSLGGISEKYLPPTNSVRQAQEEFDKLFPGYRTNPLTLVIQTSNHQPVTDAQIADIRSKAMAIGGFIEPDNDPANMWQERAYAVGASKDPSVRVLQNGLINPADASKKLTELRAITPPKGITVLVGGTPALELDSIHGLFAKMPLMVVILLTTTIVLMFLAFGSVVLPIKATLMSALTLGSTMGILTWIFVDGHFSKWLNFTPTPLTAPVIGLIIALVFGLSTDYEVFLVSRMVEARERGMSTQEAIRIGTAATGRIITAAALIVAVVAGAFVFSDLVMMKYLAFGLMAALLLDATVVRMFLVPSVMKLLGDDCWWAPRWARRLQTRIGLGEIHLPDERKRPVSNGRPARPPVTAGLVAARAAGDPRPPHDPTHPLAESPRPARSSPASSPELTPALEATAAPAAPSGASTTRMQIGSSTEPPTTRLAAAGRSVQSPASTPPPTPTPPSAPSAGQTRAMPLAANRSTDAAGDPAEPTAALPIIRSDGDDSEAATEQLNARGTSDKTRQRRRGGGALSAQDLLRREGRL

The term IC50 denotes the concentration that inhibits the measured activity by half. In general, MIC refers to the lowest concentration found to suppress growth. Regarding `CCC1(NC(=O)CNCC=C(C)CCC=C(C)C)C2CC3CC(C2)CC1C3` (stereo not drawn) [Compound 7c, 2-((3,7-Dimethylocta-2,6-dien-1-yl)amino)-N-(2-ethyladamantan-2-yl)acetamide], the half-maximal inhibitory concentration (IC50) in the data set with M. smegmatis (setting [8]) turned out to be 7.7 µM; in the data set on M. tuberculosis HN878, 6.6 ± 0.2 µM; in the data set on Bacillus subtilis, 1.9 µM; in [1], 3.9 ± 0.3 µM; in data set [2] it was 14 ± 0.04 µM; in [3], 3.2 ± 0.2 µM. Besides, the IC50 in data set [4] is 44 ± 11 µM. Besides, the MIC in the data set with M. tuberculosis HN878 stood at 6.25 µM (≈ 2.33 µg/mL); with M. tuberculosis Erdman, 16 µM (≈ 5.96 µg/mL); in the data set with M. tuberculosis H37Rv, 16 µM (≈ 5.96 µg/mL). Moreover, the “Ec IC50” value with E. coli was “No inhibition”. The same molecule registered a CC50 in “in vitro” of 7.5 ± 0.6 µM.

On to `CCCCC1(NC(=O)CNCC=C(C)CCC=C(C)C)C2CC3CC(C2)CC1C3` (stereo not drawn) [Compound 7e, 2-((3,7-Dimethylocta-2,6-dien-1-yl)amino)-N-(2-butyladamantan-2-yl)acetamide], for which the IC50 in the data set on M. smegmatis (setting [8]) worked out at 17 µM; with M. tuberculosis HN878, 13 ± 0.3 µM; with Bacillus subtilis it was 2.8 µM; in data set [1], 3 ± 0.2 µM; in [2] it was 48 ± 0.07 µM; in data set [3], 8.8 ± 1.3 µM. In data set [4], the IC50 stood at 25 ± 14 µM. In addition, the MIC in the data set on M. tuberculosis HN878 came out at 12.5 µM (≈ 5.01 µg/mL); in the data set with M. tuberculosis Erdman, 15 µM (≈ 6.01 µg/mL); with M. tuberculosis H37Rv it was 15 µM (≈ 6.01 µg/mL). In addition, the “Ec IC50” value in the data set on E. coli is given as “No inhibition”. For the same molecule, in “in vitro”, the CC50 turned out to be 15 ± 0.5 µM.

Turning to `CC(C)=CCCC(C)=CCNCC(=O)NC1(Cc2ccccc2)C2CC3CC(C2)CC1C3` (stereo not drawn) [Compound 7g, 2-((3,7-Dimethylocta-2,6-dien-1-yl)amino)-N-(2-benzyladamantan-2-yl)acetamide], the IC50 in the data set on M. smegmatis (setting [8]) is 17 µM; in the data set on Bacillus subtilis, 2.3 µM; in [1] it was 5.6 ± 1 µM; in data set [2], 17 ± 4 µM; in data set [3] it was 2.9 ± 0.3 µM; in [4] it was 27 ± 0.8 µM. Also, the MIC in the data set with M. tuberculosis Erdman and in the data set with M. tuberculosis H37Rv was 29 µM (≈ 12.6 µg/mL) each time. Besides, in the data set on E. coli, the “Ec IC50” value was “No inhibition”. Also, the CC50 in the data set “in vitro” was 7 ± 0.2 µM.

As to `CC(C)=CCCC(C)=CCNCC(=O)NC1(c2ccccc2)C2CC3CC(C2)CC1C3` (stereo not drawn) [Compound 7h, 2-((3,7-Dimethylocta-2,6-dien-1-yl)amino)-N-(2-phenyladamantan-2-yl)acetamide], the IC50 with M. smegmatis (setting [8]) turned out to be 26 µM; with Bacillus subtilis it was 4.5 µM; in data set [1], 4.1 ± 0.6 µM; in [2], 18 ± 2 µM; in [3] it was 3.4 ± 0.2 µM; in data set [4], 26 ± 28 µM. In addition, the MIC in the data set on M. tuberculosis Erdman and with M. tuberculosis H37Rv was 38 µM (≈ 16 µg/mL) each time. In addition, the “Ec IC50” value in the data set with E. coli is “No inhibition”. For the same molecule, in the data set “in vitro”, the CC50 was determined as 7 ± 0.4 µM.

What is called koff is a measure of how fast the partners let go of each other. By Kd is commonly meant the concentration at which binding is half-saturated. With `CC(C)=CCCC(C)=CCNCCNC1(c2ncc(-c3ccccc3)s2)C2CC3CC(C2)CC1C3` (stereo not drawn) [Compound 8i, N-(3,7-dimethylocta-2,6-dien-1-yl)-N´-(2-(5-phenylthiazol-2-yl)adamantan-2-yl)ethane-1,2-diamine], in the data set with M. smegmatis (read-out: Ms IC50, M. smegmatis), the 50% inhibitory concentration (IC50) came out at 21 µM. Moreover, the “Ma(S) MIC” value in data set [5] turned out to be 21.5 µM. Further, the “Ma(R) MIC” value in data set [6] was 21.5 µM. Further, the koff in data set [7] (1:1 Langmuir binding model) was determined as 0.4902 s⁻¹. Further, the Kd in data set [7] (read-out: KD, 1:1 model, 1:1 binding model, from ratio of rate constants) amounted to 87 µM. Besides, the Kd in data set [7] (read-out: KD, 2-state, two-state model, from rate constants) amounted to 91 µM. In data set [7] (two-state model), this molecule displayed a ka1 of 3946 M⁻¹ s⁻¹, a ka2 of 0.006253 s⁻¹, a kd1 of 0.434 s⁻¹ and a kd2 of 0.03057 s⁻¹.
